Experimental data from patent US10058550B2, “Methods of treating heart failure” (priority 2015, dated 2018).

molecular target: human APJ receptor (Homo sapiens (Human), UniProt P35414); assay: biochemical; assay type: biochemical; settings: read-out: Activity hAPJ SPA EC50 IP
In short: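 Agonist-stimulated [35S]GTPγS (0.2 nM) binding was read by SPA after 90 min at room temperature. Buffer: 20 mM HEPES pH 7.5 with 5 mM MgCl2, 200 mM NaCl, 3 μM GDP, 0.1% BSA; membranes were from a stable human APJ CHO line. EC50 values are averages of independent runs, fitted by non-linear regression.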

human APJ receptor, sequence (P35414 whole entry): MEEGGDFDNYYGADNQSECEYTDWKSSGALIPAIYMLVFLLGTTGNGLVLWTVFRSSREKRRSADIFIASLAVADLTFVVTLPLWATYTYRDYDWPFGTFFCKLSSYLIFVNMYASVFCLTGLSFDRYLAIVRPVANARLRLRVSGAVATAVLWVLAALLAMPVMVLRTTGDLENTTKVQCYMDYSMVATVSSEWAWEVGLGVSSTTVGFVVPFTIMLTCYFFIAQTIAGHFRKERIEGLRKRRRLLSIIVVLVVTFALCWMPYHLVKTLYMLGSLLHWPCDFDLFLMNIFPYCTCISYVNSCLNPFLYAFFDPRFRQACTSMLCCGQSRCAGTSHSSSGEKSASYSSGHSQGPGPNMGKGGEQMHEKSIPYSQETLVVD

Compared with COc1cccc(-c2nnc(NS(=O)(=O)C[C@H](OC)c3ccc(F)cn3)n2-c2c(OC)cccc2OC)n1 (single isomer, unassigned) [Example 329.0, (2R)—N-(4-(2,6-dimethoxyphenyl)-5-(6-methoxy-2-pyridinyl)-4H-1,2,4-triazol-3-yl)-2-(5-fluoro-2-pyridinyl)-2-methoxyethanesulfonamide or (2S)—N-(4-(2,6-dimethoxyphenyl)-5-(6-methoxy-2-pyridinyl)-4H-1,2,4-triazol-3-yl)-2-(5-fluoro-2-pyridinyl)-2-methoxyethanesulfonamide], COc1cccc(-c2nnc(NS(=O)(=O)C[C@H](O)c3ccc(C#N)cn3)n2-c2c(OC)cccc2OC)n1 (single isomer, unassigned) [Example 332.0, (R)-2-(5-cyanopyridin-2-yl)-N-(4-(2,6-dimethoxyphenyl)-5-(6-methoxypyridin-2-yl)-4H-1,2,4-triazol-3-yl)-2-hydroxyethanesulfonamide or (S)-2-(5-cyanopyridin-2-yl)-N-(4-(2,6-dimethoxyphenyl)-5-(6-methoxypyridin-2-yl)-4H-1,2,4-triazol-3-yl)-2-hydroxyethanesulfonamide] is 2.4-fold higher in EC50: 0.23 nM for the first, 0.56 nM for the second. The first is the more potent here.

First: COc1cccc(-c2nnc(NS(=O)(=O)C[C@H](OC)c3ccc(F)cn3)n2-c2c(OC)cccc2OC)n1 (single isomer, unassigned) [Example 330.0, (2R)—N-(4-(2,6-dimethoxyphenyl)-5-(6-methoxy-2-pyridinyl)-4H-1,2,4-triazol-3-yl)-2-(5-fluoro-2-pyridinyl)-2-methoxyethanesulfonamide or (2S)—N-(4-(2,6-dimethoxyphenyl)-5-(6-methoxy-2-pyridinyl)-4H-1,2,4-triazol-3-yl)-2-(5-fluoro-2-pyridinyl)-2-methoxyethanesulfonamide]
Second: COc1cccc(-c2nnc(NS(=O)(=O)[C@H](C)[C@@H](OCCO)c3ncc(C)cn3)n2-c2c(OC)cccc2OC)n1 (single isomer, unassigned) [Example 415.0, (1S,2R)—N-(4-(2,6-dimethoxyphenyl)-5-(6-methoxypyridin-2-yl)-4H-1,2,4-triazol-3-yl)-1-(2-hydroxyethoxy)-1-(5-methylpyrimidin-2-yl)propane-2-sulfonamide or (1R,2S)—N-(4-(2,6-dimethoxyphenyl)-5-(6-methoxypyridin-2-yl)-4H-1,2,4-triazol-3-yl)-1-(2-hydroxyethoxy)-1-(5-methylpyrimidin-2-yl)propane-2-sulfonamide]
The EC50 of the first is 30-fold lower: 0.3 nM for the first, 8.9 nM for the second.

COc1cccc(OC)c1-n1c(NS(=O)(=O)[C@@H](C)[C@@H](O)c2ccc(C#N)cc2F)nnc1-c1cncc(C)c1 (single isomer, unassigned) [Example 343.0] and COc1cccc(OC)c1-n1c(NS(=O)(=O)[C@H](C)[C@H](O)c2ncc(F)cn2)nnc1-c1cncc(C)c1 (single isomer, unassigned) [Example 358.0, (1R,2R)—N-(4-(2,6-dimethoxyphenyl)-5-(5-methylpyridin-3-yl)-4H-1,2,4-triazol-3-yl)-1-(5-fluoropyrimidin-2-yl)-1-hydroxypropane-2-sulfonamide or (1S,2S)—N-(4-(2,6-dimethoxyphenyl)-5-(5-methylpyridin-3-yl)-4H-1,2,4-triazol-3-yl)-1-(5-fluoropyrimidin-2-yl)-1-hydroxypropane-2-sulfonamide] are within 1.5-fold of each other in EC50: 64 nM for the first, 69 nM for the second.

COc1cccc(OC)c1-n1c(NS(=O)(=O)[C@@H](C)[C@@H](O)c2ccc(C#N)cc2F)nnc1-c1cncc(C)c1 (single isomer, unassigned) [Example 344.0] and COc1cccc(OC)c1-n1c(NS(=O)(=O)[C@@H](C)[C@H](OC)c2ccc(F)cn2)nnc1-c1cncc(C)c1 (single isomer, unassigned) [Example 351.0] are within 1.5-fold of each other in EC50: 0.6 nM for the first, 0.87 nM for the second.

Compared with COc1cccc(OC)c1-n1c(NS(=O)(=O)[C@@H](C)[C@H](OC)c2ccc(F)cn2)nnc1-c1cncc(C)c1 (single isomer, unassigned) [Example 352.0], COc1cccc(OC)c1-n1c(NS(=O)(=O)[C@H](C)[C@@H](OCCO)c2ncc(C)cn2)nnc1-c1cncc(C)c1 (single isomer, unassigned) [Example 394.0, (1S,2R)—N-(4-(2,6-dimethoxyphenyl)-5-(5-methylpyridin-3-yl)-4H-1,2,4-triazol-3-yl)-1-(2-hydroxyethoxy)-1-(5-methylpyrimidin-2-yl)propane-2-sulfonamide or (1R,2S)—N-(4-(2,6-dimethoxyphenyl)-5-(5-methylpyridin-3-yl)-4H-1,2,4-triazol-3-yl)-1-(2-hydroxyethoxy)-1-(5-methylpyrimidin-2-yl)propane-2-sulfonamide] is 38-fold higher in EC50: 0.32 nM for the first, 12 nM for the second. The first is the more potent here.

First: COc1cccc(OC)c1-n1c(NS(=O)(=O)[C@@H](C)[C@H](OC)c2ccc(F)cn2)nnc1-c1cncc(C)c1 (single isomer, unassigned) [Example 353.0]
Second: COc1cccc(OC)c1-n1c(NS(=O)(=O)[C@H](C)[C@@H](OCCO)c2ncc(C)cn2)nnc1-c1cncc(C)c1 (single isomer, unassigned) [Example 395.0, (1S,2R)—N-(4-(2,6-dimethoxyphenyl)-5-(5-methylpyridin-3-yl)-4H-1,2,4-triazol-3-yl)-1-(2-hydroxyethoxy)-1-(5-methylpyrimidin-2-yl)propane-2-sulfonamide or (1R,2S)—N-(4-(2,6-dimethoxyphenyl)-5-(5-methylpyridin-3-yl)-4H-1,2,4-triazol-3-yl)-1-(2-hydroxyethoxy)-1-(5-methylpyrimidin-2-yl)propane-2-sulfonamide]
The EC50 of the first is 910-fold higher: 100 nM for the first, 0.11 nM for the second.

Going from COc1cccc(OC)c1-n1c(NS(=O)(=O)[C@H](C)[C@@H](OC[C@H](C)O)c2ncc(C)cn2)nnc1-c1cncc(C)c1 (single isomer, unassigned) [Example 400.0] to COc1cccc(OC)c1-n1c(NS(=O)(=O)[C@@H](C)[C@@H](OCCO)c2ncc(C)cn2)nnc1-c1cncc(C)c1 (single isomer, unassigned) [Example 408.0, (1S,2S)—N-(4-(2,6-dimethoxyphenyl)-5-(5-methylpyridin-3-yl)-4H-1,2,4-triazol-3-yl)-1-(2-hydroxyethoxy)-1-(5-methylpyrimidin-2-yl)propane-2-sulfonamide or (1R,2R)—N-(4-(2,6-dimethoxyphenyl)-5-(5-methylpyridin-3-yl)-4H-1,2,4-triazol-3-yl)-1-(2-hydroxyethoxy)-1-(5-methylpyrimidin-2-yl)propane-2-sulfonamide], the EC50 falls from 17 nM to 0.88 nM (19-fold). The second is the more potent here.

COc1cccc(OC)c1-n1c(NS(=O)(=O)[C@H](C)[C@@H](OC[C@H](C)O)c2ncc(C)cn2)nnc1-c1cncc(C)c1 (single isomer, unassigned) [Example 401.0] and COc1cccc(OC)c1-n1c(NS(=O)(=O)[C@@H](C)[C@@H](OCCO)c2ncc(C)cn2)nnc1-c1cncc(C)c1 (single isomer, unassigned) [Example 409.0, (1S,2S)—N-(4-(2,6-dimethoxyphenyl)-5-(5-methylpyridin-3-yl)-4H-1,2,4-triazol-3-yl)-1-(2-hydroxyethoxy)-1-(5-methylpyrimidin-2-yl)propane-2-sulfonamide or (1R,2R)—N-(4-(2,6-dimethoxyphenyl)-5-(5-methylpyridin-3-yl)-4H-1,2,4-triazol-3-yl)-1-(2-hydroxyethoxy)-1-(5-methylpyrimidin-2-yl)propane-2-sulfonamide] are within 1.5-fold of each other in EC50: 21 nM for the first, 29 nM for the second.

Compared with COc1cccc(OC)c1-n1c(NS(=O)(=O)[C@H](C)[C@@H](OC[C@H](C)O)c2ncc(C)cn2)nnc1-c1cncc(C)c1 (single isomer, unassigned) [Example 402.0], COc1cccc(-c2nnc(NS(=O)(=O)[C@H](C)[C@@H](OCCO)c3ncc(C)cn3)n2-c2c(OC)cccc2OC)n1 (single isomer, unassigned) [Example 416.0, (1S,2R)—N-(4-(2,6-dimethoxyphenyl)-5-(6-methoxypyridin-2-yl)-4H-1,2,4-triazol-3-yl)-1-(2-hydroxyethoxy)-1-(5-methylpyrimidin-2-yl)propane-2-sulfonamide or (1R,2S)—N-(4-(2,6-dimethoxyphenyl)-5-(6-methoxypyridin-2-yl)-4H-1,2,4-triazol-3-yl)-1-(2-hydroxyethoxy)-1-(5-methylpyrimidin-2-yl)propane-2-sulfonamide] is 3.3-fold lower in EC50: 0.86 nM for the first, 0.26 nM for the second. The second is the more potent here.

First: COc1cccc(OC)c1-n1c(NS(=O)(=O)[C@H](C)[C@@H](OC[C@H](C)O)c2ncc(C)cn2)nnc1-c1cncc(C)c1 (single isomer, unassigned) [Example 403.0]
Second: COc1cccc(-c2nnc(NS(=O)(=O)[C@@H](C)[C@H](O)C(C)(C)C)n2-c2c(OC)cccc2OC)n1 (single isomer, unassigned) [Example 434.0, (2S,3R)—N-(4-(2,6-dimethoxyphenyl)-5-(6-methoxy-2-pyridinyl)-4H-1,2,4-triazol-3-yl)-3-hydroxy-4,4-dimethyl-2-pentanesulfonamide or (2R,3S)—N-(4-(2,6-dimethoxyphenyl)-5-(6-methoxy-2-pyridinyl)-4H-1,2,4-triazol-3-yl)-3-hydroxy-4,4-dimethyl-2-pentanesulfonamide]
The EC50 of the first is 570-fold lower: 0.21 nM for the first, 120 nM for the second.

For COc1cccc(-c2nnc(NS(=O)(=O)[C@@H](C)[C@@H](O)C(C)(C)C)n2-c2c(OC)cccc2OC)n1 (single isomer, unassigned) [Example 435.0, (2S,3S)—N-(4-(2,6-dimethoxyphenyl)-5-(6-methoxy-2-pyridinyl)-4H-1,2,4-triazol-3-yl)-3-hydroxy-4,4-dimethyl-2-pentanesulfonamide or (2R,3R)—N-(4-(2,6-dimethoxyphenyl)-5-(6-methoxy-2-pyridinyl)-4H-1,2,4-triazol-3-yl)-3-hydroxy-4,4-dimethyl-2-pentanesulfonamide], the EC50 was 24 nM.
